Assay results taken from patent US6166085A, “Method of producing analgesia” (priority 1996, dated 2000).
Entries after “also recorded” stand apart in the source; their conditions may differ. Read-outs that look alike come from different tables or passages of the source.

Tests used:
[1] = system: mechanical allodynia; test: Mechanical allodynia in rat model of peripheral neuropathy (L5/L6 spinal nerve ligation), intrathecal, Example 2; format: in vivo, Sprague-Dawley rats; conditions: for effect on mechanical allodynia (50% response threshold), 0.6 μmol: 0.6 μmol intrathecal
Protocol: Experiments carried out in support of the present invention were performed in a rat model of peripheral neuropathy detailed in Example 2. Briefly, in the model used, rats are subjected to a surgical procedure, described by Kim and Chung (1992), designed to reproducibly injure peripheral nerves (spinal nerves L5 and L6). These rats develop a hyperesthetic state, which can be measured using one or more paradigms known in the art. Here, allodynia was measured by stimulation of neuropathic rat hindlimb using wire hairs having graded degrees of stiffness.
[…]. Test solutions at pH 6.58 were administered intrathecally as described above. Mechanical allodynia was measured by pressing nylon filaments of varying diameters against the paw. Data are expressed in terms of 50% response threshold, which is the median buckling weight required to evoke paw withdrawal; the lower the stimulus level, the more severe the allodynia.
Male Sprague-Dawley rats (200-350 gm) were prepared with chronic lumbar intrathecal catheters inserted under halothane anesthesia (Yaksh and Rudy). Animals were placed in a prone position and the left paraspinal muscles were separated from the spinous processes at the L4 -S2 levels, as described by Kim et al. The left L5 and L6 nerve roots were exposed and tightly ligated with 6-0 surgical silk suture. The rats were allowed to recover from anesthesia. Allodynia was typically observed to occur beginning 1-2 days post surgery and continuing for as long as 45 days. For testing, animals were placed in plastic cubicles with open wire mesh bottoms. Compound dissolved in preservative-free saline solution was administered in a volume of 10 μl through the intrathecal catheter, followed by 10 μl saline to flush the catheter line. Animals were tested for allodynia at various time points after drug treatment, as described below.
To assess the threshold of a non-noxious stimulus required to produce a left hind paw withdrawal (allodynia), Von Frey hairs (ranging from 0.4-15 grams), were systematically applied to the surgically treated hind paw. Failure to evoke a response was cause to test the next stiffer hair. Evocation of a brisk withdrawal response was cause to test the next lower stimulus intensity. This paradigm was repeated according to a statistical method (Dixon, 1976) to define the 50% response threshold.
Data in FIG. 6 are expressed in terms of 50% response threshold, which is the median buckling weight required to evoke paw withdrawal; the lower the stimulus level, the more severe the allodynia. Allodynia thresholds, measured 30 minutes after injection, were plotted against dosage. Each point represents a value for a single animal.

[2] = Observation of motor dysfunction and overt behavior / side effects; format: in vivo, Sprague-Dawley rats; conditions: for overt changes in behavior / adverse side effects, formalin test: formalin test studies; for overt changes in behavior / adverse side effects, formalin test / adverse side effects, neuropathy model: intrathecal; for adverse side effects, neuropathy model: neuropathic rats, 3-hydroxy MEGX 0.3 and 0.6 μmol, lidocaine 0.6 μmol
Excerpt: Animals were also observed for the appearance of general motor dysfunction,as evidenced by inability to ambulate symmetrically and for any other overt signs of unusual activity.

[3] = system: sciatic nerve compound action potential; test: Rat sciatic nerve compound action potential in vivo, direct application; parameters: species or system Harlan Sprague Dawley rats; conditions: for blockade of sciatic nerve compound action potential (in words): direct application, metabolites 5 mg, 10 min
Protocol: Male Harlan Sprague Dawley rats (300-350 g) were anesthetized with pentobarbital/diazepam. The sciatic nerves were sequentially and bilaterally exposed by sharp/blunt dissection from the popliteal region proximally. Electrodes were placed at the sciatic notch (stimulating), and the interossei (recording); a grounding electrode was applied remote from the field. Baseline compound action potential (CAP) (A alpha/beta) wave heights (mV) in response to stimulation 1× per minute were recorded for ten minutes to obtain a stable reference. One drug/vehicle solution was applied per nerve, at mid-nerve (mid-thigh) level, in a volume of 250 μl, and compound action potential wave height then was recorded 1× per minute for ten minutes after application.

[4] = Metabolism of 14C lidocaine after IV administration, HPLC profile; format: in vivo, Harlan Sprague-Dawley and Dark Agouti rats; conditions: 14C lidocaine IV, N=2
[5] = system: allodynia; test: Susceptibility of rat strains to anti-allodynia effects of lidocaine; format: in vivo, Sprague-Dawley versus Dark Agouti rats; conditions: FIG. 11 legend
[6] = system: allodynia; conditions: Chaplan et al. 1995, IV or IT, cited from earlier work

SMILES: CCNCC(=O)Nc1c(C)ccc(O)c1C [3-hydroxy MEGX, 2-(ethylamino)-N-(3-hydroxy-2,6-dimethylphenyl) acetamide]
- effect on mechanical allodynia (50% response threshold), 0.3 μmol ([1]; 0.3 μmol intrathecal, pH 6.58): significant analgesic effects
- effect on mechanical allodynia (50% response threshold), 0.6 μmol ([1]; pH 6.58): significant analgesic effects
- time of peak elevation of response (blockade of allodynia) ([1]; intrathecal, single bolus, n=6 animals/treatment): 30 to 60 min
- elevation of threshold response ([1]; intrathecal, varying doses, n=6 animals/treatment): resulted in elevation of threshold response
- possible maximum duration of effect of a single bolus injection ([1]; intrathecal, "possibly up to"): up to 20 hours
- duration of effect of a single bolus injection ([1]; intrathecal, lasting in excess of): > 3 h
- motor block / motor effects (summary) ([2]; IT, 3-hydroxy MEGX at effective anti-allodynia dose, MEGX in excess): did not cause motor block at an effective anti-allodynia dose; also recorded: no evidence of motor effects
- overt changes in behavior / adverse side effects, formalin test [2]: produced no overt changes in behavior
- adverse side effects, neuropathy model [2]: no observable adverse side effects
- local anesthetic (sodium channel blocking) activity ([3]; FIG. 12 legend): appears to lack local anesthetic (sodium channel blocking) activity altogether
- blockade of sciatic nerve compound action potential (in words) ([3]; lidocaine 2.5 mg): no blockade could be obtained
- activity in ranking of CAP blockade (Lido>MEGS>3-OH L>>3-OH MEGX=0) ([3]; metabolites at 5 mg, lidocaine 2.5 mg): 0

SMILES: CCN(CC)CC(=O)Nc1c(C)cccc1C [lidocaine]
- effect on mechanical allodynia (50% response threshold), 0.6 μmol ([1]; pH 6.58): did not block mechanical allodynia
- duration of motor dysfunction (hindquarter flaccidity / weakness) ([2]; IT, 500 μg): approximately 10 minutes
- motor dysfunction, IT (in words) ([2]; IT, Example 3, lidocaine and MEGX 500 μg, 3-OH L 58 μg (highest dose soluble in vehicle)): acute onset of hindquarter flaccidity
- overt changes in behavior / adverse side effects, formalin test [2]: transient hindlimb paresis
- adverse side effects, neuropathy model [2]: immediate and transient weakness
- blockade of sciatic nerve compound action potential (in words) ([3]; lidocaine 2.5 mg): rapid and complete blockade of the sciatic nerve action potential; also recorded: abolished the CAP with ten minutes
- glucuronidated 3-OH MEGX in elution profile, DA rats ([4]; Dark Agouti): absent from the profile of DA rats
- glucuronidated 3-OH MEGX in elution profile, SD rats ([4]; Sprague-Dawley): a large peak in the elution profile of SD rats, found to consist of a glucuronidated form of 3-OH MEGX
- susceptibility to anti-allodynia effects of lidocaine, Dark Agouti rats [5]: not similarly susceptible
- susceptibility to anti-allodynia effects of lidocaine, Sprague-Dawley rats [5]: susceptible to anti-allodynia effects of Lidocaine
- anti-allodynic effect of lidocaine [6]: no anti-allodynic effect after termination of motor block
- anti-allodynic effect of lidocaine ([6]; listed as Lidocaine): effective against allodynia by the intravenous, but not the intrathecal/regional routes
